This is an account of results in patent publication US8748624B2, “Picolinamido-propanoic acid derivatives useful as glucagon receptor antagonists” (Janssen Pharmaceutica NV, priority 2011, dated 2014).

The target in assay [1] is human glucagon receptor (GCGR) (Homo sapiens (Human), UniProt P47871). As to the kind of experiment: Inhibition of 125I-glucagon binding to membranes from HEK293 cells expressing the human glucagon receptor. To be noted: membranes of hGluc-1 HEK cells, 125I-glucagon 0.3 nM, 2 hours room temperature; IC50 converted to Ki; average if tested more than once. In a few lines: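 Compound displacement of ¹²⁵I-glucagon (0.3 nM) was run for 2 h at room temperature in 50 mM HEPES pH 7.4 with 5 mM MgCl2, 1 mM CaCl2 and 0.2% BSA, using 6 μg/well membranes from stably transfected hGCGR HEK293 cells. Filter-bound counts gave IC50s, expressed as Ki.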
Sequence of human glucagon receptor (GCGR) (P47871 26-477): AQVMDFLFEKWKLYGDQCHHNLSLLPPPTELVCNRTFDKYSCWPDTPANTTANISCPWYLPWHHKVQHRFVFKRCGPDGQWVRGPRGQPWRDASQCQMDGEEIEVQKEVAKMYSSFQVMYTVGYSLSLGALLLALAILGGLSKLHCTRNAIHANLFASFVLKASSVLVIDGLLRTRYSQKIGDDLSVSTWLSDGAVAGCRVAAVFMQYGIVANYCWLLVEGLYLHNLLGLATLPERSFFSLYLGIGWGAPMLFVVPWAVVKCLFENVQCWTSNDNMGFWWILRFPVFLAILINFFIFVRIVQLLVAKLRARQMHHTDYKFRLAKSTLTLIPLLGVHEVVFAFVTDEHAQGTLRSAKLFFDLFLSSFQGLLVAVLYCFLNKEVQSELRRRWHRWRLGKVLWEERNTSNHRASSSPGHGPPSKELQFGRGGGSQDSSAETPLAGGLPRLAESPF

For another assay, the target named is human GCGR (Homo sapiens (Human), UniProt P47871). As to the kind of experiment: Cellular functional assay, cAMP readout (glucagon-stimulated cAMP in HEK293 cells expressing human GCGR). The assay is classed as cell-based. To be noted: hGluc-1 HEK cells, LANCE TR-FRET, IC50 converted to Ki, average if tested more than once. In a few lines: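 HEK293 cells stably transfected with full-length human GCGR were exposed to compound for 30 min before a 5-min challenge with […] (final) glucagon. Readout was TR-FRET (LANCE) cAMP versus standard curve; IC50s fitted by non-linear regression and converted to Ki values.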
Sequence of human GCGR (P47871 26-477): as above

In the case of `O=C(O)CCNC(=O)c1ccc(-c2cc(F)c(F)cc2CNc2ccc(-c3ccc(Cl)cc3Cl)c(Cl)c2)cn1` [Compound 108, 3-(5-(4,5-difluoro-2-(((2,2′,4′-trichloro-[1,1′-biphenyl]-4-yl)amino)methyl)phenyl)picolinamido)propanoic acid], the Ki – broadly, a measure of affinity in units of concentration, obtained from inhibition or displacement – in assay [1] worked out at 0.0239 µM; on human GCGR it was 0.0849 µM.

In the case of `O=C(O)CCNC(=O)c1ccc(-c2cc(C(F)(F)F)ccc2CNc2ccc(-c3ccc(Cl)c(C(F)(F)F)c3)c(Cl)c2)cn1` [Compound 32, 3-(5-(2-(((2,4′-dichloro-3′-(trifluoromethyl)-[1,1′-biphenyl]-4-yl)amino)methyl)-5-(trifluoromethyl)phenyl)picolinamido)propanoic acid], the Ki in assay [1] turned out to be 0.0251 µM; on human GCGR, 0.0725 µM.

As to `Cc1cc(Cl)ccc1-c1ccc(NCc2ccc(C(F)(F)F)cc2-c2ccc(C(=O)NCCC(=O)O)nc2)cc1Cl` [Compound 34, 3-(5-(2-(((2,4′-dichloro-2′-methyl-[1,1′-biphenyl]-4-yl)amino)methyl)-5-(trifluoromethyl)phenyl)picolinamido)propanoic acid], the Ki in assay [1] stood at 0.0238 µM; on human GCGR, 0.0171 µM.

Consider `O=C(O)CCNC(=O)c1ccc(-c2cc(Cl)ccc2CNc2ccc(-c3ccc(Cl)cc3Cl)cc2)cn1` [Compound 7, 3-(5-(5-chloro-2-(((2′,4′-dichloro-[1,1′-biphenyl]-4-yl)amino)methyl)phenyl)picolinamido)propanoic acid], for which the Ki amounted to 0.0224 µM in assay [1] and 0.0448 µM on human GCGR.

As to `O=C(O)CCNC(=O)c1ccc(-c2cc(C(F)(F)F)ccc2CNc2ccc(-c3ccc(C(F)(F)F)c(F)c3)c(Cl)c2)cn1` [Compound 39, 3-(5-(2-(((2-chloro-3′-fluoro-4′-(trifluoromethyl)-[1,1′-biphenyl]-4-yl)amino)methyl)-5-(trifluoromethyl)phenyl)picolinamido)propanoic acid], the results for the inhibition constant Ki (in assay [1]; at human GCGR) were 0.0266 µM and 0.0474 µM, respectively.

In the case of `O=C(O)CCNC(=O)c1ccc(-c2cc(C(F)(F)F)ccc2CNc2ccc(-c3ccc(Cl)cc3)cc2)cn1` [Compound 44, 3-(5-(2-(((4′-chloro-[1,1′-biphenyl]-4-yl)amino)methyl)-5-(trifluoromethyl)phenyl)picolinamido)propanoic acid], the inhibitory constant (Ki) in assay [1] was 0.0184 µM; at human GCGR it was 0.0601 µM.

As for `O=C(O)CCNC(=O)c1ccc(-c2cc(C(F)(F)F)ccc2CNc2ccc(-c3ccc(F)cc3Cl)c(Cl)c2)cn1` [Compound 33, 3-(5-(2-(((2,2′-dichloro-4′-fluoro-[1,1′-biphenyl]-4-yl)amino)methyl)-5-(trifluoromethyl)phenyl)picolinamido)propanoic acid], the Ki in assay [1] came to 0.0213 µM; at human GCGR it was 0.0598 µM.

For `CC(C)(C)c1ccc(-c2ccc(NCc3ccc(Cl)cc3-c3ccc(C(=O)NCCC(=O)O)nc3)cc2Cl)cc1` [Compound 168, 3-(5-(2-(((4′-(tert-butyl)-2-chloro-[1,1′-biphenyl]-4-yl)amino)methyl)-5-chlorophenyl)picolinamido)propanoic acid], the Ki came out at 0.0379 µM in assay [1] and 0.37 µM on human GCGR.

Take `CS(=O)(=O)c1ccc(CNc2ccc(-c3ccc(Cl)cc3)cc2)c(-c2ccc(C(=O)NCCC(=O)O)nc2)c1` [Compound 70, 3-(5-(2-(((4′-chloro-[1,1′-biphenyl]-4-yl)amino)methyl)-5-(methylsulfonyl)phenyl)picolinamido)propanoic acid]: the results for the Ki (in assay [1]; on human GCGR) were 0.0522 µM and greater than 10.4 µM, respectively.

For the compound `O=C(O)CCNC(=O)c1ccc(-c2cc(Cl)ccc2CNc2ccc(-c3ccc(Cl)c(F)c3)cc2F)cn1` [Compound 13, 3-(5-(5-chloro-2-(((4′-chloro-3,3′-difluoro-[1,1′-biphenyl]-4-yl)amino)methyl)phenyl)picolinamido)propanoic acid], the Ki was determined as 0.0393 µM in assay [1] and 0.311 µM on human GCGR.
